A short description of data set [1]: phys. data (logP), Table 1. It counts as physicochemical.
In data set [2] the test system is Plasmopara viticola. The data set can be described thus: Plasmopara Test (Grapevine)/Protective. In kind it is in vivo. The note with it: protective, 100 g/ha, evaluated 6 days after inoculation. How it is done: Plasmopara Test (Grapevine)/Protective Solvent: 47 parts by weight of acetone Emulsifier: 3 parts by weight of alkylaryl polyglycol ether To produce a suitable preparation of active compound, 1 part by weight of active compound is mixed with the stated amounts of solvent and emulsifier, and the concentrate is diluted with water to the desired concentration. To test for protective activity, the young plants are sprayed with the preparation of active compound at the stated application rate. After the spray coating has dried on, the plants are inoculated with an aqueous spore suspension of Plasmopara viticola and then remain in an incubation cabin at approximately 20° C. and 100% relative atmospheric humidity for 1 day. The plants are subsequently placed in a greenhouse at approximately 21° C. and approximately 90% relative atmospheric humidity for 5 days. The plants are then moistened and placed in an incubation cabin for 1 day.

Data set [3] relates to Venturia inaequalis. The data set can be described thus: Venturia Test (Apple)/Protective. It counts as in vivo. The note with it: protective, 10 g/ha, evaluated 12 days after inoculation. As for the experimental part: Venturia Test (Apple)/Protective Solvent: 47 parts by weight of acetone Emulsifier: 3 parts by weight of alkylaryl polyglycol ether To produce a suitable preparation of active compound, 1 part by weight of active compound is mixed with the stated amounts of solvent and emulsifier, and the concentrate is diluted with water to the desired concentration. To test for protective activity, young plants are sprayed with the preparation of active compound at the stated application rate. After the spray coating has dried on, the plants are inoculated with an aqueous conidia suspension of the causative organism of apple scab Venturia inaequalis and then remain in an incubation cabin at approximately 20° C. 100% relative atmospheric humidity for 1 day. The plants are then placed in the greenhouse at approximately 21° C. and a relative atmospheric humidity of approximately 90%.

Data set [4] concerns Pyricularia oryzae. It counts as in vivo. The note with it: rice, protective, 750 g/ha, contact time of one day, evaluated 4 days after inoculation.
Data set [5] relates to Leptosphaeria nodorum. The data set can be described thus: Leptosphaeria Nodorum Test (Wheat)/Protective. It counts as in vivo. The note with it: protective, 25 g/ha, evaluated 10 days after inoculation. How it is done:
Leptosphaeria Nodorum Test (Wheat)/Protective Solvent: 10 parts by weight of N-methyl-pyrrolidone Emulsifier: 0.6 parts by weight of alkylaryl polyglycol ether To produce a suitable preparation of active compound, 1 part by weight of active compound is mixed with the stated amounts of solvent and emulsifier, and the concentrate is diluted with water to the desired concentration. To test for protective activity, young plants are sprayed with the preparation of active compound at the stated application rate. After the spray coating has dried on, the plants are sprayed with a spore suspension of Leptosphaeria nodorum. The plants remain in an incubation cabin at 20° C. and 100% relative atmospheric humidity for 48 hours.

Data on 29 compounds can be found in patent publication US6281209A, “Fungicidal alkoximinomethyldioxazine derivatives” (Bayer Aktiengesellschaft, priority 1997, dated 2001).

What is called logP is the decadic logarithm of the partition coefficient of the neutral form, usually between octanol and water.

Like-named read-outs stand apart in the source and are kept apart here.

For `CON=C(C1=NOCCO1)c1ccccc1OC(=O)C=C(C)c1ccc(C)cc1` [Example 8], the logP in data set [1] (read-out: logP) came to 3.58. In addition, the “efficacy in comparison with the untreated control” value is “up to 100%” in data set [2] and “more than 80%” in data set [4]. Moreover, in data set [3], the “efficacy in comparison with the untreated controls” value is “up to 100%”.

As for `CCCOc1ccccc1C(C)=CC(=O)Oc1ccccc1C(=NOC)C1=NOCCO1` [Example 26], the logP in data set [1] (read-out: logP) came out at 3.98.

For `CON=C(C1=NOCCO1)c1ccccc1OC(=O)C=C(C)c1ccc(OC)cc1` [Example 21], in data set [1] (read-out: logP), the logP was determined as 3.19.

In the case of `CON=C(C1=NOCCO1)c1ccccc1OC(=O)C=C(C)c1ccccc1` [Example 6], in data set [1] (read-out: logP), the logP stood at 3.22. In data set [2], the “efficacy in comparison with the untreated control” value is on record as “up to 100%”. Also, the “efficacy in comparison with the untreated controls” value in data set [3] was “up to 100%”.

For `CON=C(C1=NOCCO1)c1ccccc1OC(=O)C=C(C)c1cc(Cl)ccc1Cl` [Example 14], the logP in data set [1] (read-out: logP) stood at 3.93.

On to `CON=C(C1=NOCCO1)c1ccccc1OC(=O)C=C(C)c1ccccc1C` [Example 47], for which the logP in data set [1] (read-out: logP) stood at 3.48.

In the case of `CON=C(C1=NOCCO1)c1ccccc1OC(=O)C=C(C)c1cccc(Br)c1` [Example 4], the logP in data set [1] (read-out: logP) amounted to 3.72. Moreover, the entries for the “efficacy in comparison with the untreated control” value in data set [2] and in data set [5] were “up to 100%” and 70%, respectively. Moreover, the “efficacy in comparison with the untreated controls” value in data set [3] is “up to 100%”.

Consider `CON=C(C1=NOCCO1)c1ccccc1OC(=O)C=C(C)c1ccccc1OC(C)C` [Example 24], for which the logP in data set [1] (read-out: logP) came out at 3.87.

With `CCc1cccc(C(C)=CC(=O)Oc2ccccc2C(=NOC)C2=NOCCO2)c1` [Example 9], the logP in data set [1] (read-out: logP) is 3.91. The “efficacy in comparison with the untreated control” value in data set [2] is given as “up to 100%”; in data set [4] it was “more than 80%”. For the same compound, in data set [3], the “efficacy in comparison with the untreated controls” value was “up to 100%”.

Turning to `CON=C(C1=NOCCO1)c1ccccc1OC(=O)C=C(C)c1cccc(C(F)(F)F)c1` [Example 1, 2-[(5,6-dihydro-[1,4,2]dioxazin-3-yl)-methoxyiminomethyl]-phenyl 3-(3-trifluoromethylphenyl)-but-2-enoate], the “efficacy in comparison with the untreated control” value in data set [2] is “up to 100%”. The “efficacy in comparison with the untreated controls” value in data set [3] is listed as “up to 100%”.

With `CON=C(C1=NOCCO1)c1ccccc1OC(=O)C=C(C)c1ccc(C(F)(F)F)cc1` [Example 7], the logP in data set [1] (read-out: logP) is 3.81. Besides, the “efficacy in comparison with the untreated controls” value in data set [3] is on record as “up to 100%”. For the same compound, the “efficacy in comparison with the untreated control” value in data set [4] is on record as “more than 80%”.

For `CON=C(C1=NOCCO1)c1ccccc1OC(=O)C=C(C)c1ccccc1F` [Example 29], in data set [1] (read-out: logP), the logP came out at 3.25.

Turning to `CON=C(C1=NOCCO1)c1ccccc1OC(=O)C=C(C)c1ccc(Cl)nc1` [Example 46], in data set [1] (read-out: logP), the log partition coefficient (logP) came to 2.75.

On to `CON=C(C1=NOCCO1)c1ccccc1OC(=O)C=C(C)c1ccccc1Br` [Example 45], for which, in data set [1] (read-out: logP), the logP amounted to 3.58.

`CON=C(C1=NOCCO1)c1ccccc1OC(=O)C=C(C)c1ccccc1C(F)(F)F` [Example 43]: the logP in data set [1] (read-out: logP) was found to be 3.58.

Turning to `CCOc1ccccc1C(C)=CC(=O)Oc1ccccc1C(=NOC)C1=NOCCO1` [Example 25], the logP in data set [1] (read-out: logP) stood at 3.63.

Take `CON=C(C1=NOCCO1)c1cc(C)ccc1OC(=O)C=C(C)c1cccc(Cl)c1` [Example 32]: in data set [1] (read-out: logP), the log partition coefficient (logP) came out at 3.9.

Turning to `CON=C(C1=NOCCO1)c1ccccc1OC(=O)C=C(C)c1cccc(OC)c1` [Example 5], in data set [1] (read-out: logP), the logP amounted to 3.22. For the same compound, the “efficacy in comparison with the untreated control” value in data set [2] is “up to 100%”. In data set [3], the “efficacy in comparison with the untreated controls” value is “up to 100%”.

With `CON=C(C1=NOCCO1)c1ccccc1OC(=O)C=C(C)c1ccc(Br)cc1` [Example 10], the logP in data set [1] (read-out: logP) turned out to be 3.78.

With `CON=C(C1=NOCCO1)c1ccccc1OC(=O)C=C(C)c1ccc(F)cc1` [Example 20], in data set [1] (read-out: logP), the logP is 3.28.

For the compound `CON=C(C1=NOCC(C)(C)O1)c1ccccc1OC(=O)C=C(C)c1ccc(C(F)(F)F)cc1` [Example 23], the logP in data set [1] (read-out: logP) amounted to 4.23.

With `CON=C(C1=NOCCO1)c1ccccc1OC(=O)C=C(C)COc1cccc(C(F)(F)F)c1` [Example 3], in data set [4], the “efficacy in comparison with the untreated control” value was “more than 80%”.

As to `CON=C(C1=NOCCO1)c1ccccc1OC(=O)C=C(C)c1ccccc1OC` [Example 42], in data set [1] (read-out: logP), the logP came to 3.28.

For the compound `CON=C(C1=NOCCO1)c1ccccc1OC(=O)C=C(C)c1cccc(Cl)c1` [Example 19], the logP in data set [1] (read-out: logP) was found to be 3.64.

Take `CCOc1ccc(C(C)=CC(=O)Oc2ccccc2C(=NOC)C2=NOCCO2)cc1` [Example 12]: the logP in data set [1] (read-out: logP) came out at 3.57.

For `CON=C(C1=NOCC(C)O1)c1ccccc1OC(=O)C=C(C)c1ccc(C(F)(F)F)cc1` (stereo not drawn) [Example 22], the logP in data set [1] (read-out: logP) came out at 4.02.

`CON=C(C1=NOCCO1)c1ccccc1OC(=O)C=C(C)c1cc(C)ccc1C` [Example 44]: in data set [1] (read-out: logP), the logP turned out to be 3.85.

As for `CON=C(C1=NOCCO1)c1ccccc1OC(=O)C=C(C)c1cccc(C)c1` [Example 17], in data set [1] (read-out: logP), the logP was found to be 3.58.

The compound `CON=C(C1=NOCCO1)c1ccccc1OC(=O)C=C(C)c1ccc(C)cc1` [Example 13] showed a logP in data set [1] of 4.06.
